Assay results: ChEMBL document CHEMBL3991601, “The target landscape of clinical kinase drugs” (Science, 2017)
The source made the active and inactive calls.

Key:
[1] = target: Citron Rho-interacting kinase (Homo sapiens, UniProt O14578)
[2] = target: Dual specificity protein kinase CLK2 (Homo sapiens, UniProt P49760)
[3] = target: T1, ATP-dependent RNA helicase DHX30 (Homo sapiens, UniProt Q7L2E3)
T1 sequence (Q7L2E3 whole entry): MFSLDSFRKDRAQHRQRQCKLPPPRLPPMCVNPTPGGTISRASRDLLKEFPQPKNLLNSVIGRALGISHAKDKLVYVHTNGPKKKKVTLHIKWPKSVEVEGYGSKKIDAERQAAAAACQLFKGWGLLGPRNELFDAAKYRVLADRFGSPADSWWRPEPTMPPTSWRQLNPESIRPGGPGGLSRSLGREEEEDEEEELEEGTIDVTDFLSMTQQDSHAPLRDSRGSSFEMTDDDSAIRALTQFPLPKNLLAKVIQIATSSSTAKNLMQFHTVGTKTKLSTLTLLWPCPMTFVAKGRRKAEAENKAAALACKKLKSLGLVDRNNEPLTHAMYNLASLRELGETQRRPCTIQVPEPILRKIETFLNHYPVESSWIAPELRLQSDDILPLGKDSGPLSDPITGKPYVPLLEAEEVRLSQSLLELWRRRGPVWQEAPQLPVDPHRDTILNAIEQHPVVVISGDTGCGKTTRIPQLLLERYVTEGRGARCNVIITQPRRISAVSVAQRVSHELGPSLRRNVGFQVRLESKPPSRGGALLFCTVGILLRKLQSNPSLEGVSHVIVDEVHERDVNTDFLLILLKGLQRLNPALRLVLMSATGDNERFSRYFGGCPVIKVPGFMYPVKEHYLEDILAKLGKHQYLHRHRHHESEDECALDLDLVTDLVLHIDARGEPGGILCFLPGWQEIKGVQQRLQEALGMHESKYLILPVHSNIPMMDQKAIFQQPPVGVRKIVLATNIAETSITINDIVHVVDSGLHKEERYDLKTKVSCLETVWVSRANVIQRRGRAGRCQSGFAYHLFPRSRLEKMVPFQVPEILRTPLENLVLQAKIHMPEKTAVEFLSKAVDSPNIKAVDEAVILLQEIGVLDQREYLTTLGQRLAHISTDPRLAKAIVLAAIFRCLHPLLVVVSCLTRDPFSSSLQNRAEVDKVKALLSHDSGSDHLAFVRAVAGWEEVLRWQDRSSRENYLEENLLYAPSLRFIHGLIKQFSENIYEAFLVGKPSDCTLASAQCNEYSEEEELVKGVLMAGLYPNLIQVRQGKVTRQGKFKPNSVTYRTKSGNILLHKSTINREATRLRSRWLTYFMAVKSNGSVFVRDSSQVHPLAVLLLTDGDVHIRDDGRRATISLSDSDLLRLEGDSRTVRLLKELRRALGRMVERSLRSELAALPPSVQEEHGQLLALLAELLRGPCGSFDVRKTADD

[4] = target: Putative heat shock protein HSP 90-beta 2 (Homo sapiens, UniProt Q58FF8)
[5] = target: T2, Dual specificity mitogen-activated protein kinase kinase 5 (Homo sapiens, UniProt Q13163)
T2 sequence (Q13163 whole entry): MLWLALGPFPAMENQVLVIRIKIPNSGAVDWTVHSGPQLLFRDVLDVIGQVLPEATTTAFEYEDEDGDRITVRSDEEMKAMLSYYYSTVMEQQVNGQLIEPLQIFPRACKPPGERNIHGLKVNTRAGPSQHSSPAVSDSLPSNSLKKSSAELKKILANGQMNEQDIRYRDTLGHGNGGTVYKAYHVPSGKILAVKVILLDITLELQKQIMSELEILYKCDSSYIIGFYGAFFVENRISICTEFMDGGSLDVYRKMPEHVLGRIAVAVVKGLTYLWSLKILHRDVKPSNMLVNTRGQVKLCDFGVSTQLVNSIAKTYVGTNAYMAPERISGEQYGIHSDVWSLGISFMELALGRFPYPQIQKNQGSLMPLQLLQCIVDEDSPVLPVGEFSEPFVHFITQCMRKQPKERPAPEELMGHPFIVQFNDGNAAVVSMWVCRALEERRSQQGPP

[6] = target: Obg-like ATPase 1 (Homo sapiens, UniProt Q9NTK5)
[7] = target: T3, Dynamin-like GTPase OPA1, mitochondrial (Homo sapiens, UniProt O60313)
T3 sequence (O60313 whole entry): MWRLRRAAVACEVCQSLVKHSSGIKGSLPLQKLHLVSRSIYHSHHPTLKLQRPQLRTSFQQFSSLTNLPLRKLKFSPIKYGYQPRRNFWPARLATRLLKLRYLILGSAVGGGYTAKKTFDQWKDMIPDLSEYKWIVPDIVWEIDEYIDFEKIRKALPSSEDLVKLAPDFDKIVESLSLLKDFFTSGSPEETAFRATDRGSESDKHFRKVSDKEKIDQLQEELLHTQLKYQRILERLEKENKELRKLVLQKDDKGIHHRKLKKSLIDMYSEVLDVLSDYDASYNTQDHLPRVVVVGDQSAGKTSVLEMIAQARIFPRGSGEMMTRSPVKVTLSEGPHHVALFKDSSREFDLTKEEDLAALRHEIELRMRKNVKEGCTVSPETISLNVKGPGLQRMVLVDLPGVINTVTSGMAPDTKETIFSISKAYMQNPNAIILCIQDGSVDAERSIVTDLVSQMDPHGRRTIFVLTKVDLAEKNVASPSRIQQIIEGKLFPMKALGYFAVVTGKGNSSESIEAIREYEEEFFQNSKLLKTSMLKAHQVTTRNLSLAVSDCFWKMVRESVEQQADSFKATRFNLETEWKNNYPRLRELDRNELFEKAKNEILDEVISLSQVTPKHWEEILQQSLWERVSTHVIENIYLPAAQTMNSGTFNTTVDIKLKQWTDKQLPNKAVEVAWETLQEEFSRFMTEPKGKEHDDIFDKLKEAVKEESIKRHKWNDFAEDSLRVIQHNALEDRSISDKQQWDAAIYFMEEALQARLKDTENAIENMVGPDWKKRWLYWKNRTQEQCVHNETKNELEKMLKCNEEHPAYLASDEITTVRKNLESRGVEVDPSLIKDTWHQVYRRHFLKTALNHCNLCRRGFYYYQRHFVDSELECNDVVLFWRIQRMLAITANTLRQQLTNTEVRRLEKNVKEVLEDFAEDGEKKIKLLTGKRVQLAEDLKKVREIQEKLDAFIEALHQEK
Further: in the data inactive means no Kd found up to 30 µM.

Obg-like ATPase 1, sequence (Q9NTK5 whole entry, looked up): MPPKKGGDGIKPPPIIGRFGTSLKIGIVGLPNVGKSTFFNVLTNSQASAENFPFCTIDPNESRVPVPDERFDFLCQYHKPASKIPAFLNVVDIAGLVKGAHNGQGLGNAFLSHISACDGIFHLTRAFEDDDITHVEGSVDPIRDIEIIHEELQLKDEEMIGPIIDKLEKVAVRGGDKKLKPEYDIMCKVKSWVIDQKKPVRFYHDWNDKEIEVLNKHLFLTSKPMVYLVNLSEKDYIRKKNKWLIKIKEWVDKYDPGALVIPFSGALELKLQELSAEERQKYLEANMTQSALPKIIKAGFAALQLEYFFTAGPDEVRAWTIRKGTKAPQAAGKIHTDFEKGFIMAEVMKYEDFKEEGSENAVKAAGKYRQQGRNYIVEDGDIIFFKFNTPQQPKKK
Putative heat shock protein HSP 90-beta 2, sequence (Q58FF8 whole entry): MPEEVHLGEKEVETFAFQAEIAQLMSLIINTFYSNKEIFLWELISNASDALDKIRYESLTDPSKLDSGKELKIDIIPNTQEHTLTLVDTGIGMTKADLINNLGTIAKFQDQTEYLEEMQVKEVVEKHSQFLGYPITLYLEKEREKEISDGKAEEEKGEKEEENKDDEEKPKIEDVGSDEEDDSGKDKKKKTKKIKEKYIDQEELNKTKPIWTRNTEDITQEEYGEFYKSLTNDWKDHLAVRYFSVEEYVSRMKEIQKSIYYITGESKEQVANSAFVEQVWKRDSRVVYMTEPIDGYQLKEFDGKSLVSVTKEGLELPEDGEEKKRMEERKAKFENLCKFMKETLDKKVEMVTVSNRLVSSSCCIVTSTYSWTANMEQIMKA
Citron Rho-interacting kinase, sequence (O14578 whole entry): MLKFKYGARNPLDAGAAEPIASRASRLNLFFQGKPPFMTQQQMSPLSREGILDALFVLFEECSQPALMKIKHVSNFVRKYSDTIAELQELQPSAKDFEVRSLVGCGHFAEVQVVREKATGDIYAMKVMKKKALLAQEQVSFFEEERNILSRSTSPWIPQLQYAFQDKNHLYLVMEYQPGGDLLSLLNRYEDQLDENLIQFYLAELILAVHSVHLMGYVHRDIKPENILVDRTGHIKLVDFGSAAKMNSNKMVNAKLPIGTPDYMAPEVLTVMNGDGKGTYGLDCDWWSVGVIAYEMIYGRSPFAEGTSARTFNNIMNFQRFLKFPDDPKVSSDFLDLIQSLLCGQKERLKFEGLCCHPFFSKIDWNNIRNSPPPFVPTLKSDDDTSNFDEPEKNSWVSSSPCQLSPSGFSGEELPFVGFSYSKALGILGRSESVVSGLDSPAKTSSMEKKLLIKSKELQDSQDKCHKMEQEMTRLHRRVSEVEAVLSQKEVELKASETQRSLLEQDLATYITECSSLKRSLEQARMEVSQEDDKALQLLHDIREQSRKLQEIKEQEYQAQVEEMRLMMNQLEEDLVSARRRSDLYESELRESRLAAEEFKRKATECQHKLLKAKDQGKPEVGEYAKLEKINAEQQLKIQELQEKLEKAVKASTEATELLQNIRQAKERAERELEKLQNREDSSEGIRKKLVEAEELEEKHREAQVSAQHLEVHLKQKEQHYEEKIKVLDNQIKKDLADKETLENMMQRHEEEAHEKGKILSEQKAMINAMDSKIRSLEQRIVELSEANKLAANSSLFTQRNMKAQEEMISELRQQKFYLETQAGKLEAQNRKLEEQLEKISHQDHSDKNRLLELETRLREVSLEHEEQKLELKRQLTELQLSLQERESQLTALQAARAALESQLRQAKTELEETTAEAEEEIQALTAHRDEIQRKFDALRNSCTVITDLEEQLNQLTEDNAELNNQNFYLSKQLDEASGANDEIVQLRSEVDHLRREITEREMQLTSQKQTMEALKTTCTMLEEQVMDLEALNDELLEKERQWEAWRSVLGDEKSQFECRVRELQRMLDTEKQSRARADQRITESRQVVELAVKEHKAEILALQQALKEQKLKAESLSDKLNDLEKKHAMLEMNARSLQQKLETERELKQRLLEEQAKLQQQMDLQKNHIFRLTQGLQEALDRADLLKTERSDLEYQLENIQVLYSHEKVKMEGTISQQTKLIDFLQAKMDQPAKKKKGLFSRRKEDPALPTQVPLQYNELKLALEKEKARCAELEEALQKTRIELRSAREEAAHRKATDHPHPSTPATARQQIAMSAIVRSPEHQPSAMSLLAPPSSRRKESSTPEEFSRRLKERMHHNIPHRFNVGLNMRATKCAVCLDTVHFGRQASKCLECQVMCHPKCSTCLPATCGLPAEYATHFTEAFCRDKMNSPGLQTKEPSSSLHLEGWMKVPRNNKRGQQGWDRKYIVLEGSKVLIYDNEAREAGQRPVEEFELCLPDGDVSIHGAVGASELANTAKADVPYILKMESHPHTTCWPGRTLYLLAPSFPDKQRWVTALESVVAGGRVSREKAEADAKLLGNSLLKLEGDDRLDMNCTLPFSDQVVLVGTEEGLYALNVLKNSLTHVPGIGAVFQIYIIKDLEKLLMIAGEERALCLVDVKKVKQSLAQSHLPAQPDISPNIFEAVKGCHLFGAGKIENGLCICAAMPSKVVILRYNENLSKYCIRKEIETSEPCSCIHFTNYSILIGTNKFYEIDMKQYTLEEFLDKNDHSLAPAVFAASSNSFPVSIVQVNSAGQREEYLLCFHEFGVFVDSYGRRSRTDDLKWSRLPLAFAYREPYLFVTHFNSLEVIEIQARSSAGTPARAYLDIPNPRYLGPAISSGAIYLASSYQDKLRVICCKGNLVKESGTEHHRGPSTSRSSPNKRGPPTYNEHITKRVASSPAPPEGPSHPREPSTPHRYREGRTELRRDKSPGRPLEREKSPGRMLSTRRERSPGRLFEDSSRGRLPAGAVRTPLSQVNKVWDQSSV
Dual specificity protein kinase CLK2, sequence (P49760 whole entry): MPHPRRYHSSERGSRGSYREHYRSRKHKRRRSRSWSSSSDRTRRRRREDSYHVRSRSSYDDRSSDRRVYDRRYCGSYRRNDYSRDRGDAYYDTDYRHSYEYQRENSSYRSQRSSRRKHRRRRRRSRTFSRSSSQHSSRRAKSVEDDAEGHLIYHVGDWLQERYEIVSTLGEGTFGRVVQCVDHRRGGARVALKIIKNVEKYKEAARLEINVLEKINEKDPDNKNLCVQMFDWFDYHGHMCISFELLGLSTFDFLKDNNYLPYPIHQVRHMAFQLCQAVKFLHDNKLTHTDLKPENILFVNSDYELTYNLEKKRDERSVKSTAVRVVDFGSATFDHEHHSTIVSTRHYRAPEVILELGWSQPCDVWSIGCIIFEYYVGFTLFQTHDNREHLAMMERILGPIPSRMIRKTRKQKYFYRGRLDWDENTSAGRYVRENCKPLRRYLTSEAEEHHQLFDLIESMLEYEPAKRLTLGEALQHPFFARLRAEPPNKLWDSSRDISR

SMILES: Cn1cnc2c(F)c(Nc3ccc(Br)cc3F)c(C(=O)NOCCO)cc21 [BINIMETINIB]
- Kd [1]: > 30 µM (inactive)
- Kd [2]: > 30 µM (inactive)
- Kd [3]: > 30 µM (inactive)
- Kd [4]: > 30 µM (inactive)
- Kd [5]: > 30 µM (inactive)
- Kd [6]: > 30 µM (inactive)
- Kd [7]: > 30 µM (inactive)

SMILES: COc1c(OCCCN2CCOCC2)ccc2c1N=C(NC(=O)c1cnc(N)nc1)N1CCN=C21 [COPANLISIB]
- Kd [1]: > 30 µM (inactive)
- Kd [2]: > 30 µM (inactive)
- Kd [3]: > 30 µM (inactive)
- Kd [4]: > 30 µM (inactive)
- Kd [5]: > 30 µM (inactive)
- Kd [6]: > 30 µM (inactive)
- Kd [7]: > 30 µM (inactive)

SMILES: O=c1[nH]ccc2cc(OC3CCNCC3)ccc12 [SAR-407899 FREE BASE]
- Kd [1]: > 30 µM (inactive)
- Kd [2]: > 30 µM (inactive)
- Kd [3]: > 30 µM (inactive)
- Kd [4]: > 30 µM (inactive)
- Kd [5]: > 30 µM (inactive)
- Kd [6]: > 30 µM (inactive)
- Kd [7]: > 30 µM (inactive)

SMILES: CNC(=O)c1cccc2cc(Oc3ccnc4cc(OCC5(N)CC5)c(OC)cc34)ccc12 [LUCITANIB]
- Kd [1]: > 30 µM (inactive)
- Kd [2]: > 30 µM (inactive)
- Kd [3]: > 30 µM (inactive)
- Kd [4]: > 30 µM (inactive)
- Kd [5]: > 30 µM (inactive)
- Kd [6]: > 30 µM (inactive)
- Kd [7]: > 30 µM (inactive)

SMILES: C=CC(=O)Nc1cc2c(Nc3ccc(F)c(Cl)c3)ncnc2cc1C#CC(C)(C)N1CCN(C)CC1 [AV-412 FREE BASE]
- Kd [1]: > 30 µM (inactive)
- Kd [2]: > 30 µM (inactive)
- Kd [3]: > 30 µM (inactive)
- Kd [4]: > 30 µM (inactive)
- Kd [5]: > 30 µM (inactive)
- Kd [6]: > 30 µM (inactive)
- Kd [7]: > 30 µM (inactive)

SMILES: C[C@@H](NC(=O)c1ncnc(N)c1Cl)c1ncc(C(=O)Nc2cc(C(F)(F)F)c(Cl)cn2)s1 [TOVORAFENIB]
- Kd [1]: > 30 µM (inactive)
- Kd [2]: > 30 µM (inactive)
- Kd [3]: > 30 µM (inactive)
- Kd [4]: > 30 µM (inactive)
- Kd [5]: > 30 µM (inactive)
- Kd [6]: > 30 µM (inactive)
- Kd [7]: > 30 µM (inactive)

SMILES: NC(=O)Nc1cc(-c2cccc(F)c2)sc1C(=O)N[C@H]1CCCNC1 [AZD-7762]
- Kd [1]: > 30 µM (inactive)
- Kd [2]: > 30 µM (inactive)
- Kd [3]: > 30 µM (inactive)
- Kd [4]: > 30 µM (inactive)
- Kd [5]: 0.147 µM (active)
- Kd [6]: > 30 µM (inactive)
- Kd [7]: > 30 µM (inactive)

SMILES: O=C(Nc1c[nH]nc1-c1nc2cc(CN3CCOCC3)ccc2[nH]1)NC1CC1 [AT-9283]
- Kd [1]: > 30 µM (inactive)
- Kd [2]: > 30 µM (inactive)
- Kd [3]: > 30 µM (inactive)
- Kd [4]: > 30 µM (inactive)
- Kd [5]: 0.047 µM (active)
- Kd [6]: > 30 µM (inactive)
- Kd [7]: > 30 µM (inactive)

SMILES: Cn1cc(-c2cnn3c(N)c(Br)c([C@@H]4CCCNC4)nc23)cn1 [SCH-900776]
- Kd [1]: > 30 µM (inactive)
- Kd [2]: > 30 µM (inactive)
- Kd [3]: > 30 µM (inactive)
- Kd [4]: > 30 µM (inactive)
- Kd [5]: 0.609 µM (active)
- Kd [6]: > 30 µM (inactive)
- Kd [7]: > 30 µM (inactive)
